Melting point data for two compounds are collected here from patent publication US6780875B2, “Quinoline-4-carboxamide derivatives as NK-3 and NK-2 receptor antagonists” (SmithKline Beecham S.p.A., priority 1998, dated 2004).

One may read the melting point as the temperature of the solid-liquid transition. The compound `C[C@H](NC(=O)c1c(CN2CCN(CC(=O)O)CC2)c(-c2ccccc2)nc2ccccc12)C1CCCCC1` [Example 92, {4-[4-((S)-1-Cyclohexyl-ethylcarbamoyl)-2-phenyl-quinolin-3-ylmethyl]-piperazin-1-yl}-acetic acid] showed a melting point of 188 to 195 °C.

Regarding `CC[C@H](NC(=O)c1c(CN2CCC(N3CCCCC3)CC2)c(-c2ccccc2)nc2cc(O)ccc12)c1ccccc1` [Example 95, 3-[1,4′]Bipiperidinyl-1′-ylmethyl-7-hydroxy-2-phenyl-quinoline-4-carboxylic acid ((S)-1-phenyl-propyl)-amide], the melting point is 158 to 162 °C.
